Data: US20260130905A1, “TOPICAL FORMULATIONS OF DEUCRAVACITINIB” (Bristol-Myers Squibb Company, priority 2021, published 2026)
Values after ≈ are worked out from the molar mass of the structure shown.

Key:
Format in all cases: physicochemical
[1] = Solubility of deucravacitinib in water
[2] = Solubility of deucravacitinib in different solvents
Excerpt: The solubility of deucravacitinib was examined in various solvents. […] As these solvents can, in some instances, result in skin irritation, they were not included in the development of the formulations described later in the Examples.

[3] = Solubility of deucravacitinib in solvent systems
Excerpt: The solubility of deucravacitinib was examined in various solvent systems that included water, as water is an essential component in aqueous gels and creams. The example solvent systems in Table 2 were designed for cream formulations. The total percentage of the solvent system was up to 80% of the total % w/w of the composition, with the remaining up to 20% reserved for oil component(s). Water or acidic buffer (an aqueous solution) accounted for 25% w/w of the total composition.

[4] = solvent: N-methyl-2-pyrrolidone (NMP)
[5] = solvent: dimethyl sulfoxide (DMSO)

[2H]C([2H])([2H])NC(=O)c1nnc(NC(=O)C2CC2)cc1Nc1cccc(-c2ncn(C)n2)c1OC [Deucravacitinib, 6-(cyclopropanecarboxamido)-4-((2-methoxy-3-(1-methyl-1H-1,2,4-triazol-3-yl)phenyl)amino)-N-(methyl-d3)pyridazine-3-carboxamide] showed a solubility [1] of roughly 9 µg/mL (≈ 21.2 µM), a solubility in water [1] of roughly 0.00009 % w/w and a Deucravacitinib solubility ([2]; solvent: Caprylic/capric triglyceride) of 0.01 % w/w. The Deucravacitinib solubility ([2]; solvent: Diethylene glycol monoethyl ether (DEGEE)) was 0.62 % w/w, the Deucravacitinib solubility ([2]; solvent: Diisopropyl adipate) was 0.01 % w/w and the Deucravacitinib solubility ([2]; solvent: Dimethyl isosorbide (DMI)) was 0.51 % w/w. It also gave a Deucravacitinib solubility ([2]; solvent: Ethanol) of 0.07 % w/w, a Deucravacitinib solubility ([2]; solvent: Isopropanol) of 0.02 % w/w and a Deucravacitinib solubility ([2]; solvent: Isopropyl myristate) of 0.00 % w/w. For the same molecule, the Deucravacitinib solubility [2, 4] was 10.09 % w/w, the “solubility (in words)” value [2, 4] was “high solubility” and the Deucravacitinib solubility ([2]; solvent: Octyldodecanol) was 0.01 % w/w. It also gave a Deucravacitinib solubility ([2]; solvent: Polyethylene glycol (PEG) 400) of 0.64 % w/w, a Deucravacitinib solubility ([2]; solvent: Polysorbate 80) of 0.31 % w/w and a Deucravacitinib solubility ([2]; solvent: Propylene glycol) of 0.16 % w/w. The Deucravacitinib solubility [2, 5] was 9.49 % w/w, the “solubility (in words)” value [2, 5] was “high solubility” and the Deucravacitinib solubility ([3]; S1: water 25, PEG 400 38, DEGEE 15, benzyl alcohol 2 % w/w) was 0.51 % w/w. The Deucravacitinib solubility ([3]; S2: water 25, PEG 400 38, DMI 15, benzyl alcohol 2 % w/w) was 0.48 % w/w, the Deucravacitinib solubility ([3]; S3: water 25, PEG 400 23, DEGEE 15, DMI 15, benzyl alcohol 2 % w/w) was 0.72 % w/w and the Deucravacitinib solubility ([3]; S4: 0.1N hydrochloric acid solution 25, PEG 400 38, DEGEE 15, benzyl alcohol 2 % w/w) was 0.77 % w/w. For the same molecule, the Deucravacitinib solubility ([3]; S5: 0.1N hydrochloric acid solution 25, PEG 400 38, DMI 15, benzyl alcohol 2 % w/w) was 0.83 % w/w, the Deucravacitinib solubility ([3]; S6: 0.1N hydrochloric acid solution 25, PEG 400 23, DEGEE 15, DMI 15, benzyl alcohol 2 % w/w) was 1.33 % w/w and the “solubility (in words)” value ([3]; three-solvent system S3 (PEG 400, DEGEE, DMI) compared to two-solvent systems S1 and S2) was “greatest solubility”.
